Reference: patent publication US20130005721A1, “INDOLIZINE INHIBITORS OF 5-LIPOXYGENASE” (PANMIRA PHARMACEUTICALS, LLC, priority 2009, published 2013)
pIC50: −log10 of the molar value.

tested on: human leukocytes (LTB4 production, calcium ionophore stimulated); experiment: Human Leukocyte LTB4 Inhibition Assay; assay type: cell-based; conditions: LTB4 by ELISA, read-out: LTB4 HLA IC50
Experimental: Human Leukocyte LTB4 Inhibition Assay
A non-limiting example of a human leukocyte inhibition assay is as follows; Blood was drawn from consenting human volunteers into heparanized tubes and 3% dextran 0.9% saline ⅓ rd volume added. After sedimentation of red blood cells a hypotonic lysis of remaining red blood cells was performed and leukocytes sedimented at 1200 rpm. The pellet was resuspended at 1.25×10^5 cells/ml and aliquoted into wells containing 1 μL 100% DMSO (vehicle) or 2.5 μL drug in 100% DMSO. Samples were incubated for 5 minutes at 37° C. and 2 μL calcium ionophore […] (from a 50 mM DMSO stock diluted just prior to the assay in Hanks balanced salt solution (Invitrogen)) to 1.25 mM) was added, solutions mixed and incubated for 30 minutes at 37° C. Samples were centrifuged at 1,200 rpm (−200×g) for 10 minutes at 4° C., plasma removed and a 1:4 dilution assayed for LTB4 concentration using ELISA (Assay Designs). Drug concentrations to achieve 50% inhibition (IC50's) of vehicle LTB4 were determined by nonlinear regression (Graphpad Prism) of % inhibition versus log drug concentration.

Compound | pIC50
CCC(O)(c1nnc(NCc2ccn3c(-c4ccc(F)cc4)c(C(N)=O)cc3c2)o1)C(F)(F)F (single isomer, unassigned) [Compound 1-21, 3-(4-Fluoro-phenyl)-7-{[5-(1-hydroxy-1-trifluoromethyl-propyl)-[1,3,4]oxadiazol-2-ylamino]-methyl}-indolizine-2-carboxylic acid amide] | > 6.52

same assay, conditions: Leukocyte, LTB4 by ELISA, read-out: LTB4 HLA IC50

Compound | pIC50
CCC(O)(c1cn(Cc2ccn3c(-c4cnc5ccccc5c4)c(C#N)cc3c2)nn1)C(F)(F)F (stereo not drawn) [Compound 1-53, 7-[4-(1-Hydroxy-1-trifluoromethyl-propyl)-[1,2,3]triazol-1-ylmethyl]-3-quinolin-3-yl-indolizine-2-carbonitrile] | > 6.52
CCC(O)(c1nnc(NCc2ccn3c(-c4ccc(F)cc4)c(C#N)c(Br)c3c2)o1)C(F)(F)F (stereo not drawn) [Compound 1-18, 1-Bromo-3-(4-fluoro-phenyl)-7-{[5-(1-hydroxy-1-trifluoromethyl-propyl)-[1,3,4]oxadiazol-2-ylamino]-methyl}-indolizine-2-carbonitrile] | > 6.52
CCOC(=O)c1cc2cc(Cn3cc(C(O)(CC)C(F)(F)F)nn3)ccn2c1-c1ccnc(C)c1 (stereo not drawn) [Compound 1-63, 7-[4-(1-Hydroxy-1-trifluoromethyl-propyl)-[1,2,3]triazol-1-ylmethyl]-3-(2-methyl-pyridin-4-yl)-indolizine-2-carboxylic acid ethyl ester] | > 6.52
CCOc1ccc(-c2c(C#N)cc3cc(Cn4cc(C(O)(CC)C(F)(F)F)nn4)ccn23)cn1 (stereo not drawn) [Compound 1-59, 3-(6-Ethoxy-pyridin-3-yl)-7-[4-(1-hydroxy-1-trifluoromethyl-propyl)-[1,2,3]triazol-1-ylmethyl]-indolizine-2-carbonitrile] | > 6.52
CCOC(=O)c1cc2cc(Cn3cc(C(O)(CC)C(F)(F)F)nn3)ccn2c1Cl (single isomer, unassigned) [Compound 1-87, 3-Chloro-7-[4-(1-hydroxy-1-trifluoromethyl-propyl)-[1,2,3]triazol-1-ylmethyl]-indolizine-2-carboxylic acid ethyl ester] | > 6.52
CCC(O)(c1cn(Cc2ccn3c(-c4ccnc(C)c4)c(C#N)cc3c2)nn1)C(F)(F)F (stereo not drawn) [Compound 1-65, 7-[4-(1-Hydroxy-1-trifluoromethyl-propyl)-[1,2,3]triazol-1-ylmethyl]-3-(2-methyl-pyridin-4-yl)-indolizine-2-carbonitrile] | > 6.52
CCOC(=O)c1cc2cc(Cn3cc(C(O)(CC)C(F)(F)F)nn3)ccn2c1-c1cccc(S(C)(=O)=O)c1 (stereo not drawn) [Compound 1-47, 7-[4-(1-Hydroxy-1-trifluoromethyl-propyl)-[1,2,3]triazol-1-ylmethyl]-3-(3-methanesulfonyl-phenyl)-indolizine-2-carboxylic acid ethyl ester] | > 6.52
CCOC(=O)c1cc2cc(Cn3cc(C(O)(CC)C(F)(F)F)nn3)ccn2c1-c1cncnc1 (stereo not drawn) [Compound 1-73, 7-[4-(1-Hydroxy-1-trifluoromethyl-propyl)-[1,2,3]triazol-1-ylmethyl]-3-pyrimidin-5-yl-indolizine-2-carboxylic acid ethyl ester] | > 6.52
CCOC(=O)c1cc2cc(Cn3cc(C(O)(CC)C(F)(F)F)nn3)ccn2c1-c1ccc(C)nc1 (stereo not drawn) [Compound 1-69, 7-[4-(1-Hydroxy-1-trifluoromethyl-propyl)-[1,2,3]triazol-1-ylmethyl]-3-(6-methyl-pyridin-3-yl)-indolizine-2-carboxylic acid ethyl ester] | > 6.52
CCC(O)(c1cn(Cc2ccn3c(-c4ccc(F)cc4)c(C(N)=O)nc3c2)nn1)C(F)(F)F (stereo not drawn) [Compound 1-14, 3-(4-Fluoro-phenyl)-7-[4-(1-hydroxy-1-trifluoromethyl-propyl)-[1,2,3]triazol-1-ylmethyl]-imidazo[1,2-a]pyridine-2-carboxylic acid amide] | 6.00 to 6.52
CCC(O)(c1cn(Cc2ccn3c(-c4ccc(OC)nc4)c(C#N)cc3c2)nn1)C(F)(F)F (stereo not drawn) [Compound 1-57, 7-[4-(1-Hydroxy-1-trifluoromethyl-propyl)-[1,2,3]triazol-1-ylmethyl]-3-(6-methoxy-pyridin-3-yl)-indolizine-2-carbonitrile] | > 6.52
CCC(O)(c1cn(Cc2ccn3c(-c4ccc(C)nc4)c(C#N)cc3c2)nn1)C(F)(F)F (single isomer, unassigned) [Compound 1-76, 7-[4-(1-Hydroxy-1-trifluoromethyl-propyl)-[1,2,3]triazol-1-ylmethyl]-3-(6-methyl-pyridin-3-yl)-indolizine-2-carbonitrile] | > 6.52
CCC(O)(c1cn(Cc2ccn3c(-c4ccnc(C)c4)c(C#N)cc3c2)nn1)C(F)(F)F (single isomer, unassigned) [Compound 1-80, 7-[4-(1-Hydroxy-1-trifluoromethyl-propyl)-[1,2,3]triazol-1-ylmethyl]-3-(2-methyl-pyridin-4-yl)-indolizine-2-carbonitrile] | > 6.52
CCOC(=O)c1cc2cc(Cn3cc(C(O)(CC)C(F)(F)F)nn3)ccn2c1-c1ccc(=O)n(C)c1 (stereo not drawn) [Compound 1-62, 7-[4-(1-Hydroxy-1-trifluoromethyl-propyl)-[1,2,3]triazol-1-ylmethyl]-3-(1-methyl-6-oxo-1,6-dihydro-pyridin-3-yl)-indolizine-2-carboxylic acid ethyl ester] | 6.00 to 6.52
CCOC(=O)c1cc2cc(Cn3ncc(C(O)(CC)C(F)(F)F)n3)ccn2c1-c1ccc(F)cc1 (stereo not drawn) [Compound 1-3, 3-(4-Fluoro-phenyl)-7-[4-(1-hydroxy-1-trifluoromethyl-propyl)-[1,2,3]triazol-2-ylmethyl]-indolizine-2-carboxylic acid ethyl ester] | > 6.52
CCC(O)(c1cn(Cc2ccn3c(-c4ccc(F)cc4)c(/C=C/C(=O)O)cc3c2)nn1)C(F)(F)F (stereo not drawn) [Compound 1-41, (E)-3-{3-(4-Fluoro-phenyl)-7-[4-(1-hydroxy-1-trifluoromethyl-propyl)-[1,2,3]triazol-1-ylmethyl]-indolizin-2-yl}-acrylic acid] | 6.00 to 6.52
CCOC(=O)c1cc2cc(Cn3cc(C(O)(CC)C(F)(F)F)nn3)ccn2c1-c1ccc(OCC)nc1 (stereo not drawn) [Compound 1-56, 3-(6-Ethoxy-pyridin-3-yl)-7-[4-(1-hydroxy-1-trifluoromethyl-propyl)-[1,2,3]triazol-1-ylmethyl]-indolizine-2-carboxylic acid ethyl ester] | > 6.52
CCC(OC(=O)c1ccc([N+](=O)[O-])cc1)(c1cn(Cc2ccn3c(-c4ccc(OC)nc4)c(C(N)=O)cc3c2)nn1)C(F)(F)F (single isomer, unassigned) [Compound 1-83, 4-Nitro-benzoic acid 1-{1-[2-carbamoyl-3-(6-methoxy-pyridin-3-yl)-indolizin-7-ylmethyl]-1H-[1,2,3]triazol-4-yl}-1-trifluoromethyl-propyl ester] | 6.00 to 6.52
CCC(O)(c1cn(Cc2ccn3c(-c4ccc(F)cc4)c(C(N)=O)cc3c2)nn1)C(F)(F)F (stereo not drawn) [Compound 1-6, 3-(4-Fluoro-phenyl)-7-[4-(1-hydroxy-1-trifluoromethyl-propyl)-[1,2,3]triazol-1-ylmethyl]-indolizine-2-carboxylic acid amide] | > 6.52
CCOC(=O)c1cc2cc(Cn3cc(C(CC)(OC(=O)c4ccc([N+](=O)[O-])cc4)C(F)(F)F)nn3)ccn2c1-c1ccc(OC)nc1 (single isomer, unassigned) [Compound 1-85, 3-(6-Methoxy-pyridin-3-yl)-7-{4-[1-(4-nitro-benzoyloxy)-1-trifluoromethyl-propyl]-[1,2,3]triazol-1-ylmethyl}-indolizine-2-carboxylic acid ethyl ester] | 6.00 to 6.52
CCC(O)(c1cn(Cc2ccn3c(-c4ccc(F)cc4)c(C(N)=O)cc3c2)nn1)C(F)(F)F (single isomer, unassigned) [Compound 1-9, 3-(4-Fluoro-phenyl)-7-[4-(1-hydroxy-1-trifluoromethyl-propyl)-[1,2,3]triazol-1-ylmethyl]-indolizine-2-carboxylic acid amide] | > 6.52
CCC(O)(c1cn(Cc2ccn3c(-c4cccc(F)c4)c(C(N)=O)cc3c2)nn1)C(F)(F)F (stereo not drawn) [Compound 1-48, 3-(3-Fluoro-phenyl)-7-[4-(1-hydroxy-1-trifluoromethyl-propyl)-[1,2,3]triazol-1-ylmethyl]-indolizine-2-carboxylic acid amide] | > 6.52
CCC(O)(c1cn(Cc2ccn3c(-c4ccc(F)cc4)c(C=O)cc3c2)nn1)C(F)(F)F (stereo not drawn) [Compound 1-33, 3-(4-Fluoro-phenyl)-7-[4-(1-hydroxy-1-trifluoromethyl-propyl)-[1,2,3]triazol-1-ylmethyl]-indolizine-2-carbaldehyde] | > 6.52
CCC(O)(c1cn(Cc2ccn3c(-c4ccc(F)cc4)c(C(C)=O)cc3c2)nn1)C(F)(F)F (stereo not drawn) [Compound 1-54, 1-{3-(4-Fluoro-phenyl)-7-[4-(1-hydroxy-1-trifluoromethyl-propyl)-[1,2,3]triazol-1-ylmethyl]-indolizin-2-yl}-ethanone] | > 6.52
CCOC(=O)c1cc2cc(Cn3cc(C(O)(CC)C(F)(F)F)nn3)ccn2c1-c1cnc2ccccc2c1 (stereo not drawn) [Compound 1-52, 7-[4-(1-Hydroxy-1-trifluoromethyl-propyl) [1,2,3]triazol-1-ylmethyl]-3-quinolin-3-yl-indolizine-2-carboxylic acid ethyl ester] | > 6.52
CCC(O)(c1cn(Cc2ccn3c(-c4ccnc(C)c4)c(C(N)=O)cc3c2)nn1)C(F)(F)F (stereo not drawn) [Compound 1-64, 7-[4-(1-Hydroxy-1-trifluoromethyl-propyl)-[1,2,3]triazol-1-ylmethyl]-3-(2-methyl-pyridin-4-yl)-indolizine-2-carboxylic acid amide] | < 6.00
